Target: T1, KPC-2 (Klebsiella pneumoniae carbapenemase-2) (Klebsiella pneumoniae, UniProt Q9F663)
T1 construct: purified KPC-2 expressed in E. coli BL21(DE3) (pET28a-KPC-2)
Assay: nitrocefin hydrolysis inhibition assay with purified KPC-2; supported by CD, FTIR and site-directed mutagenesis
Assay type: biochemical

T1 sequence (Q9F663 25-293 limits assumed): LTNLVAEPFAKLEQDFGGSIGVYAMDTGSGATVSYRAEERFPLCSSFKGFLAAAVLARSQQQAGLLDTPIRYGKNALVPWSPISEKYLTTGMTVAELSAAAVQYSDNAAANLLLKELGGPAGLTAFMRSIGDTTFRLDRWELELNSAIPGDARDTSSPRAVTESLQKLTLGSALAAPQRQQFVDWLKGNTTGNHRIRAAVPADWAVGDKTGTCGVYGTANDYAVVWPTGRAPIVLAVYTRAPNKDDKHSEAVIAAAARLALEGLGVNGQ

**Q.** For `CCCCCCCCCCCCCc1cccc(O)c1C(=O)O` [GA, Ginkgolic Acid (C13:0)], which IC50 is on record?
**A.** Its IC50 is 14.8 µM.

Reference: paper PMC11371739, “Ginkgolic Acid as a carbapenem synergist against KPC-2 positive Klebsiella pneumoniae” (Frontiers in Microbiology, 2024)
